The subject of this test is DU-145 cells. Description: Cell death of sub-confluent DU-145 cells (adherent cell counting). Format: cell-based, human. On the procedure:
The PC-3 and DU-145 cells (1×10^5/in 1 ml of a culture fluid per hole using a 24-hole plate) were cultured in a DMEM culture fluid (containing 10% of FBS, 1% of P/S, and 1% of fungizone) under 5% of CO2, at 37° C., for three days, and when the cells reached sub-confluence, the culture fluid was exchanged for the one containing the DHMBA (0.01, 0.1, 1, 10, 100, or 1000 μM), and the cells were cultured for 24 and 48 hours. After the culture, the cells adhering to the bottom surface of the dish were removed and counted. In another experiment, after the culture for three days, when the cells reached sub-confluence, the culture fluid was exchanged for a culture fluid containing the DHMBA (1 or 10 μM) and a caspase-3 inhibitor (10 μM), and the cells were counted after the culture for 48 hours. Further, after the culture for three days, when the cells reached sub-confluence, the culture fluid was exchanged for a culture fluid obtained by adding gemcitabine (0.1, 1, 10, 50 or 100 nM) or CH223191 (1, 10, and 25 μM) to a DMEM culture fluid containing the DHMBA (1 or 10 μM) or not containing the DHMBA, and the cells were counted after the culture for 48 hours. […]

For the compound `COc1c(O)cc(CO)cc1O` [DHMBA, 3,5-dihydroxy-4-methoxybenzyl alcohol], the cell death entry (DHMBA 1, 10, 100, or 1000 μM, 24 and 48 hours) is “significantly increased”. In addition, for the setting “DHMBA 1 or 10 μM with caspase-3 inhibitor 10 μM, 48 hours”, the “increase of cell death in the presence of caspase-3 inhibitor” value is on record as “not caused”.

The values are drawn from US20240350430A1, “GROWTH INHIBITOR OF METASTATIC HUMAN PROSTATE CANCER CELLS” (Watanabe Oyster Laboratory Co., Ltd., priority 2021, published 2024).
